# Several values for one entry are separate records, joined by “and”; a condition that tells them apart may be missing. Equal entries are not always repeated. Where two headings read alike, the source gives them in different places.
# Legend:
# ovine COX-1 = target: T1, ovine COX-1 (Ovis aries, UniProt P05979); assay: COX-1 inhibition, oxygraphic method (oxygen electrode); format: biochemical; details: 10 μM arachidonic acid; no preincubation phase; approximate, from initial velocities
# T1 construct: purchased Cayman Chemical Co. 60100
# T1 sequence (P05979 25-600): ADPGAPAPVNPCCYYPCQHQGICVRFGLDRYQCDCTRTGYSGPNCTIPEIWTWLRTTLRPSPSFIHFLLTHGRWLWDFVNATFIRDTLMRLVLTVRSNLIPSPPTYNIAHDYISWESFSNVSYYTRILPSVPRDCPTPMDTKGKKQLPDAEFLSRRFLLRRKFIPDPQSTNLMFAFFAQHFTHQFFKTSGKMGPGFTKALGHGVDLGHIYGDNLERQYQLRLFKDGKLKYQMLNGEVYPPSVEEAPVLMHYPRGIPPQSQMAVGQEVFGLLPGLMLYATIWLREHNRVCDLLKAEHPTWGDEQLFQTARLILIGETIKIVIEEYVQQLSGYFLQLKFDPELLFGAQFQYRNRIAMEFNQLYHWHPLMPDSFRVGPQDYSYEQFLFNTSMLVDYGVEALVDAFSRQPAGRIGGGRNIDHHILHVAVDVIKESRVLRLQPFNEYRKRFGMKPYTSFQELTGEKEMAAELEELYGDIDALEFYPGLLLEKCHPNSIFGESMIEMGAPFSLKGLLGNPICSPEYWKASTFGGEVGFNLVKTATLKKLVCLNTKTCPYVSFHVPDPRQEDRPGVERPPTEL
# Method: (§1) The assay was performed according to Meade et al. with minor modifications. An oxygen electrode chamber with integral stirring (Oxygraph System, Hansatech Instruments, King´s Lynn, U.K.) was calibrated daily to ambient temperature and air pressure. The assay buffer contained 0.1 M Tris-HCl buffer pH 7.4, 1 μM haematin, 2 mM phenol, 5 mM EDTA, 10 μM substrate (arachidonic acid or 2-AG) (final assay volume was 2 ml). After addition of (R)- or (S)-Flu-AM1 dissolved in ethanol (final assay concentration 1%), a baseline was established for 5 min before initiation of reaction by addition of 200 units ovine COX-1 or human recombinant COX-2. The change in oxygen consumption as a measurement of enzyme activity was monitored for approximately 5 min.
# mouse brain FAAH = target: T2, mouse brain FAAH (Mus musculus, UniProt O08914); assay: FAAH assay, [3H]AEA hydrolysis in mouse brain homogenates; format: biochemical; details: 0.5 μM [3H]AEA; read-out: IC50 inhibition of [3H]AEA hydrolysis in mouse brain homogenates
# T2 construct: Brains from male B6CBAF1/J mice, stored at -80°C, were thawed, weighed and homogenized in cold buffer; from tissue; host or cells: brain of male B6CBAF1/J mice (washed membrane pellet homogenate)
# T2 sequence (O08914 1-579): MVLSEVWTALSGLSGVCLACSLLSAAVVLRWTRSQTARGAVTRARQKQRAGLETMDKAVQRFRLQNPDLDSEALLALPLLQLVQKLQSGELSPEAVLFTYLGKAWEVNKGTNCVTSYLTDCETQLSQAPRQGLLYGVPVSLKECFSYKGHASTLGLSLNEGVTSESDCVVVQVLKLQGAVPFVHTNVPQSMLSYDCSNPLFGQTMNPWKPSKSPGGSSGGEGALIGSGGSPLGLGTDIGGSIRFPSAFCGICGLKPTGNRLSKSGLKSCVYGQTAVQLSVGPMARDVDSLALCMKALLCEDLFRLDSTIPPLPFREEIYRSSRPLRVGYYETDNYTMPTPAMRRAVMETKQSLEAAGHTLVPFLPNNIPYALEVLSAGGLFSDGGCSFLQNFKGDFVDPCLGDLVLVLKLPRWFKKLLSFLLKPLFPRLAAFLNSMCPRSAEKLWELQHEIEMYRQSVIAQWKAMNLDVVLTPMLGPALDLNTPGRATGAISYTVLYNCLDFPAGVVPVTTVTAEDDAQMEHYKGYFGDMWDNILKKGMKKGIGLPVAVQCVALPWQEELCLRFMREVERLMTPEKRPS
# Method: Brains from male B6CBAF1/J mice, stored at -80°C, were thawed, weighed and homogenized in cold buffer (20 mM HEPES, 1 mM MgCl2 pH 7.0). Homogenates were centrifuged (35,000 g at 4°C for 20 min) before the pellet was resuspended in cold homogenization buffer. Centrifugation and resuspension was repeated twice. The suspension was incubated at 37°C for 15 min to degrade any endogenous substrate able to interfere with the FAAH assay. After centrifugation (35,000 g at 4°C for 20 min), the pellet was resuspended in cold buffer (50 mM Tris-HCl, 1mM EDTA, 3 mM MgCl2, pH 7.4). The protein concentration was determined according to the Bradford assay after which the samples were frozen in aliquots at -80°C. Ethical permission for the animal experiments was obtained from the local animal research ethical committee (Umeå Ethical Committee for Animal Research, Umeå, Sweden). FAAH was assayed using the method of Boldrup et al., whereby homogenates (0.3 μg protein / assay) in assay buffer (10 mM Tris-HCl, 1mM EDTA, pH 7.4), test compounds and substrate ([^3H]AEA in 10 mM Tris-HCl, 1mM EDTA, pH 7.4 containing 10 mg/ml fatty acid-free bovine serum, assay concentration 0.5 μM unless otherwise stated) were incubated for 10 min at 37°C. Thereafter, 400 μL activated charcoal (80 μL activated charcoal + 320 μL 0.5 M HCl) was added and the samples were placed on ice and centrifuged at 2500 rpm for 10 min. Aliquots (200 μL) of the supernatant was analyzed for tritium content by liquid scintillation spectroscopy with quench correction.
# rat brain FAAH [1] = target: T3, rat brain FAAH (Rattus norvegicus, UniProt P97612); assay: [3H]AEA hydrolysis in rat brain homogenates; format: biochemical; details: current authors, unpublished data; read-out: IC50 inhibition of [3H]AEA hydrolysis in rat brain homogenates
# T3 construct: the racemate was studied in rat brain homogenates, whereas mouse brain homogenates were used here; from tissue; host or cells: rat brain homogenates
# T3 sequence (P97612 1-579): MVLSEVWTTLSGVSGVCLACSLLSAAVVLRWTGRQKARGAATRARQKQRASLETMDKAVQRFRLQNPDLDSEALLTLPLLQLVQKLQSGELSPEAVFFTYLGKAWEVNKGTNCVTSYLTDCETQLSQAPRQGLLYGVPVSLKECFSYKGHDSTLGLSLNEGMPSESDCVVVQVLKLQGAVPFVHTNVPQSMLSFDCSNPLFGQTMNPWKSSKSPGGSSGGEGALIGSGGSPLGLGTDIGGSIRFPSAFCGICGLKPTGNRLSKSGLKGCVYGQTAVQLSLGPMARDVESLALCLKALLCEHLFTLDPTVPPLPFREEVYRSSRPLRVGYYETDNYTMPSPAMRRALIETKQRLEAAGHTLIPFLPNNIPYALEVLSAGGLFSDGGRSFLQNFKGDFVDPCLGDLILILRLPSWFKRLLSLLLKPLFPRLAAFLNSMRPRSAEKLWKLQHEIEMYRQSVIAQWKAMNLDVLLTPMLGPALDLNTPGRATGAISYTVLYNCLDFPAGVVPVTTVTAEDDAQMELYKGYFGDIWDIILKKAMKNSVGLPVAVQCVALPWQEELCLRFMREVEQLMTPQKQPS
# human recombinant COX-2 = target: T4, human recombinant COX-2 (Homo sapiens, UniProt P35354); assay: COX-2 inhibition, oxygraphic method (oxygen electrode); format: biochemical; details: no preincubation phase, approximate, from initial velocities
# T4 construct: purchased Cayman Chemical Co. 60122
# T4 sequence (P35354 18-604): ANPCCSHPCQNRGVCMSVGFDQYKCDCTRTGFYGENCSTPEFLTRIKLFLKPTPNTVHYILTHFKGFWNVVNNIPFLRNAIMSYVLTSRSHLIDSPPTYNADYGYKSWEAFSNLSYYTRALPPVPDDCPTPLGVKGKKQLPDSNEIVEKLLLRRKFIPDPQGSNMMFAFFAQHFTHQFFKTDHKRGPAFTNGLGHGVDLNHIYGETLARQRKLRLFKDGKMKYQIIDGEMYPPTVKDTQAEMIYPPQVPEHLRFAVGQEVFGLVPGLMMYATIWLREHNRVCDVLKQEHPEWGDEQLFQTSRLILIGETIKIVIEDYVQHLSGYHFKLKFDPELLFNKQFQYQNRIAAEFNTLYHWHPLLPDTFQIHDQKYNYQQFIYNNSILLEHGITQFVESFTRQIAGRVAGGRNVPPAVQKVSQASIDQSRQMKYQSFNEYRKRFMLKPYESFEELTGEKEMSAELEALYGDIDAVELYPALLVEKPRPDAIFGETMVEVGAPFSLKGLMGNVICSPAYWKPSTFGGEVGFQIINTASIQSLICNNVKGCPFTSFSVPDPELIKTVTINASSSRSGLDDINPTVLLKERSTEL
# Method: as §1
# rat brain FAAH [2] = target: T3, rat brain FAAH; details: racemate; read-out: IC50 FAAH, rat brain homogenates; cited from earlier work
Compound,IC50 (ovine COX-1),IC50 (mouse brain FAAH) [nM],IC50 (rat brain FAAH [1]) [nM],"IC50 (human recombinant COX-2; 10 μM 2-AG, read-out: IC50 COX-2 (2-AG))","IC50 (human recombinant COX-2; 10 μM arachidonic acid, read-out: IC50 COX-2 (arachidonic acid))",IC50 (rat brain FAAH [2]) [nM]
Cc1cccnc1NC(=O)[C@@H](C)c1ccc(-c2ccccc2)c(F)c1 [(S)-Flu-AM1],3000 nM and ~3000 nM,11000,990,700 nM and ~700 nM,10000 nM and ~10000 nM,–
"Cc1cccnc1NC(=O)C(C)c1ccc(-c2ccccc2)c(F)c1 (stereo not drawn) [Flu-AM1, 2-(2-fluorobiphenyl-4-yl)-N-(3-methylpyridin-2-yl)propanamide]",–,–,–,–,–,440

# Reference: publication PMC4583449, “Characterisation of (R)-2-(2-Fluorobiphenyl-4-yl)-N-(3-Methylpyridin-2-yl)Propanamide as a Dual Fatty Acid Amide Hydrolase: Cyclooxygenase Inhibitor” (PLoS ONE, 2015)
